Test results: the Kinase Knowledgebase extract (Sharma et al. 2016)
“And” between values parts separate entries of the source, which are not always exact repeats. Equal values may be shown once.

molecular target: MAPK14 (human) (UniProt Q16539); test: Enzyme Assay
Sequence (Q16539 whole entry, looked up): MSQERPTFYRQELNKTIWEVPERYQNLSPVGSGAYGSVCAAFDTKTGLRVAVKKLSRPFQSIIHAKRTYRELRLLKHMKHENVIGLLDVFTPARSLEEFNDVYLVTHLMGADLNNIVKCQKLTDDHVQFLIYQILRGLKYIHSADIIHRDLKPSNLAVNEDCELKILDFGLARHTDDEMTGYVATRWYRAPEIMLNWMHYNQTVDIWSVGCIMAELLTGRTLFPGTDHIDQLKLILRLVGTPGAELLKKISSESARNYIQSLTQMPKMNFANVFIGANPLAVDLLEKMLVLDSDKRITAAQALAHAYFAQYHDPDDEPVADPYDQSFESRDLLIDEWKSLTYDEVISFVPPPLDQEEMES

| Ki | Kd [nM] | Compound |
| --- | --- | --- |
| 291 nM | – | CC(C)(C)c1cc(NC(=O)Nc2cccc3ccccc23)n(-c2cccc(C(=O)NCCCN3CCOCC3)c2)n1 |
| 885 nM | – | CC(C)(C)c1cc(NC(=O)Nc2cccc3ccccc23)n(-c2cccc(C(=O)NC3CCN(CCN4CCOCC4)CC3)c2)n1 |
| 301 nM | – | CC(C)(C)c1cc(NC(=O)Nc2cccc3ccccc23)n(-c2cccc(C(=O)NCCCN3CCCC3)c2)n1 |
| 336 nM | – | COCCCN1CCC(NC(=O)c2cccc(-n3nc(C(C)(C)C)cc3NC(=O)Nc3cccc4ccccc34)c2)CC1 |
| 433 nM | – | CC(C)(C)c1cc(NC(=O)Nc2cccc3ccccc23)n(-c2cccc(C(=O)NCCNc3ccccc3)c2)n1 |
| 250 nM and 252 nM | 55 | CC(C)(C)c1cc(NC(=O)Nc2cccc3ccccc23)n(-c2cccc(C(=O)NCC#N)c2)n1 |

The next lines start with the compound.

| Compound | Ki | Kd [nM] |
| --- | --- | --- |
| CC(C)CN(CCCN)C(=O)c1cccc(-n2nc(C(C)(C)C)cc2NC(=O)Nc2cccc3ccccc23)c1 | 312 nM | – |
| CC(C)(C)c1cc(NC(=O)Nc2cccc3ccccc23)n(-c2cccc(C(=O)N[C@@H]3CS(=O)(=O)C[C@H]3O)c2)n1 | 112 nM | – |
| CC(C)[C@H](CO)CNC(=O)c1cccc(-n2nc(C(C)(C)C)cc2NC(=O)Nc2cccc3ccccc23)c1 | 471 nM | – |
| CC(C)(C)c1cc(NC(=O)Nc2cccc3ccccc23)n(-c2cccc(C(=O)N(CCCN)C3CCCCC3)c2)n1 | 89 nM | – |
| CCN(CCN(C)C)C(=O)c1cccc(-n2nc(C(C)(C)C)cc2NC(=O)Nc2cccc3ccccc23)c1 | 735 nM | – |
| CN1CCN(CCNC(=O)c2cccc(-n3nc(C(C)(C)C)cc3NC(=O)Nc3cccc4ccccc34)c2)CC1 | 140 nM | – |
| CC(C)CC(CNC(=O)c1cccc(-n2nc(C(C)(C)C)cc2NC(=O)Nc2cccc3ccccc23)c1)C(N)=O (stereo not given) | 786 nM | – |
| CC(C)(C)c1cc(NC(=O)Nc2cccc3ccccc23)n(-c2cccc(C(=O)NCc3ccncn3)c2)n1 | 327 nM | – |
